Assay results as given in patent US11399542B2, “Pesticidally active heterocyclic derivatives with sulfur containing substituents” (SYNGENTA PARTICIPATIONS AG, priority 2017, dated 2022).
Blank lines part the entries; values can stand above or below the compound they belong to.

What was measured:
[1] = tested on: Diabrotica balteata (Corn Root Worm); experiment: Example B4: Activity against Diabrotica balteata, sprayed maize sprouts; assay type: in vivo; settings: 96 h, application rate 200 ppm, L2 larvae on maize sprouts, 4 days after infestation, read-out: effect in at least one of the two categories (mortality or growth inhibition)
Description: Maize sprouts placed onto an agar layer in 24-well microtiter plates were treated with aqueous test solutions prepared from 10′000 ppm DMSO stock solutions by spraying. After drying, the plates were infested with L2 larvae (6 to 10 per well). The samples were assessed for mortality and growth inhibition in comparison to untreated samples 4 days after infestation.

[2] = tested on: Plutella xylostella (Diamond Back Moth); experiment: Example B3: Activity against Plutella xylostella, artificial diet, L2 larvae; assay type: in vivo; settings: 120 h, application rate 200 ppm, L2 larvae on artificial diet, 5 days after infestation, read-out: effect in at least one of the two categories (mortality or growth inhibition)
Description: (§1) 24-well microtiter plates with artificial diet were treated with aqueous test solutions prepared from 10′000 ppm DMSO stock solutions by pipetting. After drying, the plates were infested with L2 larvae (10 to 15 per well). The samples were assessed for mortality and growth inhibition in comparison to untreated samples 5 days after infestation.

[3] = tested on: Myzus persicae (Green Peach Aphid); experiment: Example B5: Activity against Myzus persicae, sprayed sunflower leaf discs; assay type: in vivo; settings: foliar, 144 h, application rate 200 ppm, mixed-age aphids on sunflower leaf discs, 6 days after infestation
Description: (§2) Sunflower leaf discs were placed on agar in a 24-well microtiter plate and sprayed with aqueous test solutions prepared from 10′000 ppm DMSO stock solutions. After drying, the leaf discs were infested with an aphid population of mixed ages. The samples were assessed for mortality 6 days after infestation.

[4] = tested on: Myzus persicae (Green Peach Aphid); experiment: Example B6: Activity against Myzus persicae, systemic via roots of pea seedlings; assay type: in vivo; settings: 144 h, test rate 24 ppm, pea seedling roots in test solution, 6 days
Description: Roots of pea seedlings infested with an aphid population of mixed ages were placed directly in the aqueous test solutions prepared from 10′000 DMSO stock solutions. The samples were assessed for mortality 6 days after placing seedlings in test solutions.

[5] = tested on: Euschistus heros (Neotropical Brown Stink Bug); experiment: Example B9: Activity against Euschistus heros, sprayed soybean leaf; assay type: in vivo; settings: 120 h, application rate 200 ppm, N2 nymphs on soybean leaf, 5 days after infestation, read-out: effect in at least one of the two categories (mortality or growth inhibition)
Description: Soybean leaf on agar in 24-well microtiter plates were sprayed with aqueous test solutions prepared from 10′000 ppm DMSO stock solutions. After drying the leaf were infested with N2 nymphs. The samples were assessed for mortality and growth inhibition in comparison to untreated samples 5 days after infestation.

[6] = tested on: Frankliniella occidentalis (Western Flower Thrips); experiment: Example B8: Activity against Frankliniella occidentalis, sprayed sunflower leaf discs; assay type: in vivo; settings: foliar, 168 h, application rate 200 ppm, mixed ages on sunflower leaf discs, 7 days after infestation
Description: as §2, with “in” for “in a”, “plates” for “plate”, “[…]” for “10′000 ppm”, “drying” for “drying,”, “a Frankliniella” for “an aphid”, “7” for “6”

[7] = tested on: Bemisia tabaci (Cotton White Fly); experiment: Example B7: Activity against Bemisia tabaci, sprayed cotton leaf discs; assay type: in vivo; settings: foliar, 144 h, application rate 200 ppm, adult white flies on cotton leaf discs, 6 days after incubation
Description: Cotton leaf discs were placed on agar in 24-well microtiter plates and sprayed with aqueous test solutions prepared from 10′000 ppm DMSO stock solutions. After drying the leaf discs were infested with adult white flies. The samples were checked for mortality 6 days after incubation.

[8] = tested on: Spodoptera littoralis (Egyptian Cotton Leaf Worm); experiment: Example B1: Activity against Spodoptera littoralis, sprayed cotton leaf discs; assay type: in vivo; settings: foliar, 72 h, application rate 200 ppm, L1 larvae on cotton leaf discs, 3 days after infestation, read-out: control (at least one of mortality, anti-feedant effect, growth inhibition)
Description: Cotton leaf discs were placed onto agar in 24-well microtiter plates and sprayed with aqueous test solutions prepared from 10′000 ppm DMSO stock solutions. After drying the leaf discs were infested with five L1 larvae. The samples were assessed for mortality, anti-feeding effect, and growth inhibition in comparison to untreated samples 3 days after infestation. Control of Spodoptera littoralis by a test sample is given when at least one of the categories mortality, anti-feedant effect, and growth inhibition is higher than the untreated sample.

[9] = tested on: Plutella xylostella (Diamond Back Moth); experiment: Example B12: Activity against Plutella xylostella, artificial diet, eggs; assay type: in vivo; settings: 192 h, application rate 200 ppm, eggs on artificial diet, 8 days after infestation, read-out: effect in at least one of the two categories (mortality or growth inhibition)
Description: as §1, with “drying, Plutella eggs were pipetted through a plastic stencil onto a gel blotting paper and” for “drying,”, “plate was closed” for “plates were infested”, “it.” for “L2 larvae (10 to 15 per well).”, “8” for “5”

melting point: 255 to 257 °C
SMILES: CCSc1cc2c(cc1-c1nc3cc(C(F)(F)F)cnc3n1C)n(C#N)c(=O)n2C

melting point: 186 to 188 °C
SMILES: CCSc1cc2c(cc1-c1nc3cc(C(F)(F)F)cnc3n1C)n(C)c(=O)n2CC

melting point: 206 to 208 °C
SMILES: CCSc1cc2c(cc1-c1nc3cc(SC(F)(F)F)ccc3o1)n(C)c(=O)n2C

melting point: 205 to 207 °C
SMILES: CCSc1cc2c(cc1-c1nc3cc(C(F)(F)F)ccc3o1)n(C)c(=O)n2C

SMILES: CCn1c(=O)n(C)c2cc(-c3nc4cc(C(F)(F)F)ncc4n3C)c(S(=O)(=O)CC)cc21 [Compound P4, 1-ethyl-6-ethylsulfonyl-3-methyl-5-[3-methyl-6-(trifluoromethyl)imidazo[4,5-c]pyridin-2-yl]benzimidazol-2-one]
percent effect (mortality or growth inhibition) at 200 ppm [1]: ≥ 80%
percent effect (mortality or growth inhibition) at 200 ppm [2]: ≥ 80%
mortality at 200 ppm [3]: ≥ 80%
mortality at 24 ppm [4]: ≥ 80%
percent effect (mortality or growth inhibition) at 200 ppm [5]: ≥ 80%
mortality at 200 ppm [6]: ≥ 80%

SMILES: CCSc1cc2c(cc1-c1nc3cc(C(F)(F)F)cnc3n1C)n(CC)c(=O)n2C [Compound P7, 1-ethyl-5-ethylsulfanyl-3-methyl-6-[3-methyl-6-(trifluoromethyl)imidazo[4,5-b]pyridin-2-yl]benzimidazol-2-one]
percent effect (mortality or growth inhibition) at 200 ppm [1]: ≥ 80%
percent effect (mortality or growth inhibition) at 200 ppm [2]: ≥ 80%
percent effect (mortality or growth inhibition) at 200 ppm [5]: ≥ 80%

SMILES: CCS(=O)(=O)c1cc2c(nc1-c1nc3cc(C(F)(F)F)ncc3n1C)n(C)c(=O)n2C [Compound P8, 6-ethylsulfonyl-1,3-dimethyl-5-[3-methyl-6-(trifluoromethyl)imidazo[4,5-c]pyridin-2-yl]imidazo[4,5-b]pyridin-2-one]
percent effect (mortality or growth inhibition) at 200 ppm [2]: ≥ 80%
mortality at 200 ppm [7]: ≥ 80%
mortality at 200 ppm [3]: ≥ 80%
mortality at 24 ppm [4]: ≥ 80%
percent effect (mortality or growth inhibition) at 200 ppm [5]: ≥ 80%
mortality at 200 ppm [6]: ≥ 80%

SMILES: CCS(=O)(=O)c1cc2c(cc1-c1nc3cc(C(F)(F)F)ncc3n1C)n(C)c(=O)n2C [Compound P9, 5-ethylsulfonyl-1,3-dimethyl-6-[3-methyl-6-(trifluoromethyl)imidazo[4,5-c]pyridin-2-yl]benzimidazol-2-one]
mortality at 200 ppm [3]: ≥ 80%
mortality at 24 ppm [4]: ≥ 80%
percent effect (mortality or growth inhibition) at 200 ppm [5]: ≥ 80%
mortality at 200 ppm [6]: ≥ 80%

SMILES: CCS(=O)(=O)c1cc2c(cc1-c1nc3cc(C(F)(F)F)cnc3n1C)n(C#N)c(=O)n2C [Compound P14, 5-ethylsulfonyl-3-methyl-6-[3-methyl-6-(trifluoromethyl)imidazo[4,5-b]pyridin-2-yl]-2-oxo-benzimidazole-1-carbonitrile]
mortality at 200 ppm [3]: ≥ 80%
mortality at 24 ppm [4]: ≥ 80%
percent effect (mortality or growth inhibition) at 200 ppm [5]: ≥ 80%
mortality at 200 ppm [6]: ≥ 80%

SMILES: CCS(=O)(=O)c1cc2c(cc1-c1nc3cc(C(F)(F)F)cnc3n1C)n(CS(C)(=O)=O)c(=O)n2C [Compound P16, 6-ethylsulfonyl-1-methyl-3-(methylsulfonylmethyl)-5-[3-methyl-6-(trifluoromethyl)imidazo[4,5-b]pyridine-2-yl]benzimidazol-2-one]
mortality at 200 ppm [3]: ≥ 80%
mortality at 24 ppm [4]: ≥ 80%
percent effect (mortality or growth inhibition) at 200 ppm [5]: ≥ 80%
mortality at 200 ppm [6]: ≥ 80%

SMILES: CCS(=O)(=O)c1cc2c(cc1-c1nc3cc(C(F)(F)F)cnc3n1C)n(COC)c(=O)n2C [Compound P18, 5-ethylsulfonyl-1-(methoxy-methyl)-3-methyl-6-[3-methyl-6-(trifluoromethyl)imidazo[4,5-b]pyridine-2-yl]benzimidazol-2-one]
percent effect (mortality or growth inhibition) at 200 ppm [1]: ≥ 80%
percent effect (mortality or growth inhibition) at 200 ppm [2]: ≥ 80%
mortality at 200 ppm [3]: ≥ 80%
mortality at 24 ppm [4]: ≥ 80%
percent effect (mortality or growth inhibition) at 200 ppm [5]: ≥ 80%

SMILES: CCS(=O)(=O)c1cc2c(nc1-c1nc3cc(C(F)(F)F)cnc3n1C)n(C)c(=O)n2C [Compound P22, 6-ethylsulfonyl-1,3-dimethyl-5-[3-methyl-6-(trifluoromethyl)imidazo[4,5-b]pyridine-2-yl]imidazo[4,5-b]pyridine-2-one]
percent effect (mortality or growth inhibition) at 200 ppm [1]: ≥ 80%
percent effect (mortality or growth inhibition) at 200 ppm [2]: ≥ 80%
percent control (mortality, anti-feedant effect or growth inhibition) at 200 ppm [8]: ≥ 80%
mortality at 200 ppm [7]: ≥ 80%
mortality at 200 ppm [3]: ≥ 80%
mortality at 24 ppm [4]: ≥ 80%
percent effect (mortality or growth inhibition) at 200 ppm [5]: ≥ 80%
mortality at 200 ppm [6]: ≥ 80%

SMILES: CCS(=O)(=O)c1cc2c(cc1-c1nc3cc(SC(F)(F)F)ccc3n1C)n(C)c(=O)n2C [Compound P36, 5-ethylsulfonyl-1,3-dimethyl-6-[1-methyl-5-(trifluoromethyl-sulfanyl)benzimidazol-2-yl]benzimidazol-2-one]
percent effect (mortality or growth inhibition) at 200 ppm [1]: ≥ 80%
percent effect (mortality or growth inhibition) at 200 ppm [9]: ≥ 80%
mortality at 200 ppm [7]: ≥ 80%
mortality at 200 ppm [3]: ≥ 80%
mortality at 24 ppm [4]: ≥ 80%
percent effect (mortality or growth inhibition) at 200 ppm [5]: ≥ 80%

SMILES: CCS(=O)(=O)c1cc2c(nc1-c1nc3cc(SC(F)(F)F)ccc3n1C)n(C)c(=O)n2C [Compound P38, 6-ethylsulfonyl-1,3-dimethyl-5-[1-methyl-5-(trifluoromethyl-sulfanyl)benzimidazol-2-yl]imidazo[4,5-b]pyridin-2-one]
percent effect (mortality or growth inhibition) at 200 ppm [1]: ≥ 80%
percent control (mortality, anti-feedant effect or growth inhibition) at 200 ppm [8]: ≥ 80%
percent effect (mortality or growth inhibition) at 200 ppm [9]: ≥ 80%
mortality at 200 ppm [7]: ≥ 80%
mortality at 200 ppm [3]: ≥ 80%
mortality at 24 ppm [4]: ≥ 80%
mortality at 200 ppm [6]: ≥ 80%

SMILES: CCS(=O)(=O)c1cc2c(nc1-c1nc3cc(S(=O)(=O)C(F)(F)F)ccc3n1C)n(C)c(=O)n2C [Compound P39, 6-ethylsulfonyl-1,3-dimethyl-5-[1-methyl-5-(trifluoromethyl-sulfonyl)benzimidazol-2-yl]imidazo[4,5-b]pyridine-2-one]
percent control (mortality, anti-feedant effect or growth inhibition) at 200 ppm [8]: ≥ 80%
percent effect (mortality or growth inhibition) at 200 ppm [9]: ≥ 80%
mortality at 200 ppm [7]: ≥ 80%
mortality at 200 ppm [3]: ≥ 80%
mortality at 24 ppm [4]: ≥ 80%
percent effect (mortality or growth inhibition) at 200 ppm [5]: ≥ 80%

SMILES: CCS(=O)(=O)c1cc2c(nc1-c1nc3cc([S+]([O-])C(F)(F)F)ccc3o1)n(C)c(=O)n2C (stereo not drawn) [Compound P45, 6-ethylsulfonyl-1,3-dimethyl-5-[5-(trifluoromethylsulfinyl)-1,3-benzoxazol-2-yl]imidazo[4,5-b]pyridin-2-one]
percent effect (mortality or growth inhibition) at 200 ppm [1]: ≥ 80%
percent control (mortality, anti-feedant effect or growth inhibition) at 200 ppm [8]: ≥ 80%
percent effect (mortality or growth inhibition) at 200 ppm [9]: ≥ 80%
mortality at 24 ppm [4]: ≥ 80%
percent effect (mortality or growth inhibition) at 200 ppm [5]: ≥ 80%
mortality at 200 ppm [6]: ≥ 80%
